The results in this text go back to patent US9340528B2, “Substituted aminoquinoxalines as tyrosine threonine kinase inhibitors” (BAYER PHARMA AKTIENGESELLSCHAFT, priority 2009, dated 2016).

The assay relates to HeLa human cervical tumor cells (ATCC CCL-2). The assay can be described thus: Proliferation Assay (crystal violet staining, 4 days). It counts as cell-based. As to conditions: 96 h, 4 days incubation, read-out: EO-PROLIF-HELA. Here is the method:
Biological Assay: Proliferation Assay
Cultivated HeLa human cervical tumor cells (ATCC CCL-2) were plated at a density of 3000 cells/well in a 96-well multititer plate in 200 μl DMEM/HAMS F12 medium supplemented with 2 mM L-Glutamine and 10% fetal calf serum. After 24 hours, the cells of one plate (zero-point plate) were stained with crystal violet (see below), while the medium of the other plates was replaced by fresh culture medium (200 μl), to which the test substances were added in various concentrations (0 μM, as well as in the range of 0.01-30 μM; the final concentration of the solvent dimethyl sulfoxide was 0.5%). The cells were incubated for 4 days in the presence of test substances. Cell proliferation was determined by staining the cells with crystal violet: the cells were fixed by adding 20 μl/measuring point of an 11% glutaric aldehyde solution for 15 minutes at room temperature. After three washing cycles of the fixed cells with water, the plates were dried at room temperature. The cells were stained by adding 100 μl/measuring point of a 0.1% crystal violet solution (pH 3.0). After three washing cycles of the stained cells with water, the plates were dried at room temperature. The dye was dissolved by adding 100 μl/measuring point of a 10% acetic acid solution. The extinction was determined by photometry at a wavelength of 595 nm. The change of cell number, in percent, was calculated by normalization of the measured values to the extinction values of the zero-point plate (=0%) and the extinction of the untreated (0 μm) cells (=100%). The IC50 values were determined by means of a 4 parameter fit using the company's own software.
In the case of `O=C(NCc1ccccc1)Nc1ccc(-c2ccc3ncc(N4CCOCC4)nc3c2)cc1` [Example 6.6, 1-benzyl-3-{4-[3-(morpholin-4-yl)quinoxalin-6-yl]phenyl}urea], the IC50 is 10 µM.
The figure for `O=C(Cc1cccc(C(F)(F)F)c1)Nc1ccc(-c2ccc3ncc(N4CCOCC4)nc3c2)cc1` [Example 4.13, N-{4-[3-(morpholin-4-yl)quinoxalin-6-yl]phenyl}-2-[3-(trifluoromethyl)phenyl]acetamide] is 8.12 µM; for `CC(=O)Nc1ccc(-c2ccc3ncc(N4CCOCC4)nc3c2)cc1` [Example 1.73, N-{4-[3-(morpholin-4-yl)quinoxalin-6-yl]phenyl}acetamide] it is 3 µM.
The value for `O=C(CC1CC1)Nc1ccc(-c2ccc3ncc(N4CCN(c5ccncc5)CC4)nc3c2)cc1` [Example 7.7, 2-cyclopropyl-N-(4-{3-[4-(pyridin-4-yl)piperazin-1-yl]quinoxalin-6-yl}phenyl)acetamide] was 1.71 µM.
The figure for `CC(C(=O)Nc1ccc(-c2ccc3ncc(N4CCN(c5ccncc5)CC4)nc3c2)cc1)c1ccccc1` (stereo not drawn) [Example 7.3, 2-phenyl-N-(4-{3-[4-(pyridin-4-yl)piperazin-1-yl]quinoxalin-6-yl}phenyl)propanamide] is 2.56 µM; for `Oc1ccc(-c2ccc3ncc(N4CCN(Cc5cccnc5)CC4)nc3c2)cc1` [Example 3.35, 4-{3-[4-(pyridin-3-ylmethyl)piperazin-1-yl]quinoxalin-6-yl}phenol] it is 8.25 µM.
With `CC(C(=O)Nc1ccc(-c2ccc3ncc(N4CCN(Cc5cccnc5)CC4)nc3c2)cc1)c1ccccc1` (stereo not drawn) [Example 9.3, 2-phenyl-N-(4-{3-[4-(pyridin-3-ylmethyl)piperazin-1-yl]quinoxalin-6-yl}phenyl)propanamide], the IC50 is 3 µM.
As to `CNC(=O)c1ccc(-c2ccc3ncc(N4CCOCC4)nc3c2)cc1` [Example 1.47, N-methyl-4-[3-(morpholin-4-yl)quinoxalin-6-yl]benzamide], the IC50 came to 3 µM.
The figure for `O=C(Cc1ccccc1)Nc1ccc(-c2ccc3ncc(N4CCN(Cc5cccnc5)CC4)nc3c2)cc1` [Example 9.1, 2-phenyl-N-{4-[3-(4-pyridin-3-ylmethyl-piperazin-1-yl)-quinoxalin-6-yl]-phenyl}-acetamide] is 3 µM; for `Oc1ccc(-c2ccc3ncc(N4CCOCC4)nc3c2)cc1` [Example 3.5, 4-[3-(morpholin-4-yl)quinoxalin-6-yl]phenol] it is 2.51 µM.
With `CN1CCN(Cc2ccc(NC(=O)Nc3ccc(-c4ccc5ncc(N6CCCCC6)nc5c4)cc3)cc2C(F)(F)F)CC1` [Example 2.73, 1-{4-[(4-methylpiperazin-1-yl)methyl]-3-(trifluoromethyl)phenyl}-3-{4-[3-(piperidin-1-yl)quinoxalin-6-yl]phenyl}urea], the IC50 amounted to 1.12 µM.
The figure for `O=C(Cc1ccccc1)Nc1ccc(-c2ccc3ncc(N4CCOCC4)nc3c2)cc1` [Example 4.3, N-{4-[3-(morpholin-4-yl)quinoxalin-6-yl]phenyl}-2-phenylacetamide] is 10 µM.
The figure for `Oc1ccc(-c2ccc3ncc(N4CCN(c5cnccn5)CC4)nc3c2)cc1` [Example 3.17, 4-{3-[4-(pyrazin-2-yl)piperazin-1-yl]quinoxalin-6-yl}phenol] is 3.87 µM.
The figure for `CN1CCN(Cc2ccc(NC(=O)Nc3ccc(-c4ccc5ncc(N6CCOCC6)nc5c4)cc3)cc2C(F)(F)F)CC1` [Example 1.71, 1-{4-[(4-methylpiperazin-1-yl)methyl]-3-(trifluoromethyl)phenyl}-3-{4-[3-(morpholin-4-yl)quinoxalin-6-yl]phenyl}urea] is 0.889 µM; for `O=C(Nc1ccc(-c2ccc3ncc(N4CCOCC4)nc3c2)cc1)Nc1cccnc1` [Example 6.8, 1-{4-[3-(morpholin-4-yl)quinoxalin-6-yl]phenyl}-3-pyridin-3-ylurea] it is 3.93 µM; for `O=C(Cc1ccccn1)Nc1ccc(-c2ccc3ncc(N4CCN(c5ccncc5)CC4)nc3c2)cc1` [Example 7.6, 2-(pyridin-2-yl)-N-(4-{3-[4-(pyridin-4-yl)piperazin-1-yl]quinoxalin-6-yl}phenyl)acetamide] it is 2.79 µM.
`O=C(Cc1ccccc1F)Nc1ccc(-c2ccc3ncc(N4CCN(c5ccncc5)CC4)nc3c2)cc1` [Example 7.2, 2-(2-fluorophenyl)-N-(4-{3-[4-(pyridin-4-yl)piperazin-1-yl]quinoxalin-6-yl}phenyl)acetamide]: the IC50 worked out at 2.84 µM.
With `O=C(CCc1ccccc1)Nc1ccc(-c2ccc3ncc(N4CCN(c5ccncc5)CC4)nc3c2)cc1` [Example 7.4, 3-phenyl-N-(4-{3-[4-(pyridin-4-yl)piperazin-1-yl]quinoxalin-6-yl}phenyl)propanamide], the IC50 is 1.43 µM.
The figure for `O=C(Nc1ccccc1)c1ccc(-c2ccc3ncc(N4CCCCC4)nc3c2)cc1` [Example 2.90, N-phenyl-4-[3-(piperidin-1-yl)quinoxalin-6-yl]benzamide] is 3 µM.
The figure for `Oc1ccc(-c2ccc3ncc(N4CCN(c5ccncc5)CC4)nc3c2)cc1` [Example 3.15, 4-{3-[4-(pyridin-4-yl)piperazin-1-yl]quinoxalin-6-yl}phenol] is 2.92 µM; for `O=C(Cc1ccccc1)Nc1ccc(-c2ccc3ncc(N4CCN(c5ccncc5)CC4)nc3c2)cc1` [Example 7.1, 2-phenyl-N-{4-[3-(4-pyridin-4-yl-piperazin-1-yl)-quinoxalin-6-yl]-phenyl}-acetamide] it is 2.61 µM; for `O=C(Cc1ccccc1F)Nc1ccc(-c2ccc3ncc(N4CCN(Cc5cccnc5)CC4)nc3c2)cc1` [Example 9.2, 2-(2-fluorophenyl)-N-(4-{3-[4-(pyridin-3-ylmethyl)piperazin-1-yl]quinoxalin-6-yl}phenyl)acetamide] it is 3 µM.
The figure for `Cc1cc(-c2ccc3ncc(N4CCOCC4)nc3c2)cc(C)c1O` [Example 1.108, 2,6-dimethyl-4-[3-(morpholin-4-yl)quinoxalin-6-yl]phenol] is 2.32 µM; for `O=C(Nc1ccc(-c2ccc3ncc(N4CCN(c5ccncc5)CC4)nc3c2)cc1)NC1CC1` [Example 8.3, 1-cyclopropyl-3-(4-{3-[4-(pyridin-4-yl)piperazin-1-yl]quinoxalin-6-yl}phenyl)urea] it is 3 µM.
